Source: patent US20240116922A1, “IMIDAZO[1,2-A]PYRIDINE DERIVATIVES AS IRAK4 INHIBITORS AND THEIR USE IN THE TREATMENT OF DISEASE” (BIOGEN MA INC., priority 2020, published 2024)
Converted amounts (≈) assume the structure as drawn. Structures can show the parent of a compound that is named as a salt.

Assays:
[1] = target: IRAK4 (Homo sapiens (Human), UniProt Q9NWZ3); assay: IRAK4 MSD biochemical assay (2-hour 1 mM ATP); conditions: 0.1 nM IRAK4, 1 mM ATP, 2 hour at room temperature
[2] = Kinetic solubility assay (CLND), pH 6.8; assay type: physicochemical; conditions: aqueous buffer, kinetic from dmso stock; potassium phosphate buffer pH 6.8, 2% DMSO, 24 hours at ambient temperature
[3] = Kpuu assay (in vivo brain-to-plasma unbound partition); conditions: brain (unbound) versus plasma (unbound); intravenous infusion 4 to 24 h; unbound brain/plasma ratio; read-out: Brain Kpu, u
[4] = target: MDR1 (Homo sapiens (Human), UniProt P08183); assay: in vitro; conditions: MDCK-MDR1
Chain of MDR1 (P08183 whole entry): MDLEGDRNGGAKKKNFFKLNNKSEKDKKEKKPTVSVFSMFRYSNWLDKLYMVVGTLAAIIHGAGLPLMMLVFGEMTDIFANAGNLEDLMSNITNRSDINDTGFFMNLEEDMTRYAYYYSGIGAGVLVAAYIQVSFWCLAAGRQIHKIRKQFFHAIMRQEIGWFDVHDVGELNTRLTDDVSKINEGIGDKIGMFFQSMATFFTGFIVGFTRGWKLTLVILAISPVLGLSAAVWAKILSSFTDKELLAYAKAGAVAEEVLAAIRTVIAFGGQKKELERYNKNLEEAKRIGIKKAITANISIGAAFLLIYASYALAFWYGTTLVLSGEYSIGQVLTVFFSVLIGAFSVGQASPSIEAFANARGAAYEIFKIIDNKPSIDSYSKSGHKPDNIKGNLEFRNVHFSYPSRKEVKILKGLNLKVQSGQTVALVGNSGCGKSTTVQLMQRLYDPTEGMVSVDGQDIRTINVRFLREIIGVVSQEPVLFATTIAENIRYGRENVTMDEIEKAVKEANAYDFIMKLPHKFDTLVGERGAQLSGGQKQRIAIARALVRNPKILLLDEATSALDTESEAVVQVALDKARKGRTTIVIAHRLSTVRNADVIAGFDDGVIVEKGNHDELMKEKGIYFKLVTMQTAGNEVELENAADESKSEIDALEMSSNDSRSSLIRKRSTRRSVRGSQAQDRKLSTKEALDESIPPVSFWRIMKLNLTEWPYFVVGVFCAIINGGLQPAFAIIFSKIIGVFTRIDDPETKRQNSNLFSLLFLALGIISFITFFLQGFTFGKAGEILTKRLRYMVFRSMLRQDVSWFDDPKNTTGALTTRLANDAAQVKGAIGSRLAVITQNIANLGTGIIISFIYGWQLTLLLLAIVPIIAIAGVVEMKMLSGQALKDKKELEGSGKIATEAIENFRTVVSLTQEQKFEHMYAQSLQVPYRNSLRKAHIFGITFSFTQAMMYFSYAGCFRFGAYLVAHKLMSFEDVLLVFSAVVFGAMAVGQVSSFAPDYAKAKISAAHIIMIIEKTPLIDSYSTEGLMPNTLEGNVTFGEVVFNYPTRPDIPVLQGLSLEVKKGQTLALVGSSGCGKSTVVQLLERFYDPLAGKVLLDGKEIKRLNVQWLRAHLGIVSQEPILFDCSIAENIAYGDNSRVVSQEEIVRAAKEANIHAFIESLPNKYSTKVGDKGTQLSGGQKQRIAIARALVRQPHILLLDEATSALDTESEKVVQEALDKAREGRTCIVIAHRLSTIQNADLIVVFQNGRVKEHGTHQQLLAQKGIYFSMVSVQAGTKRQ

Chain of IRAK4 (Q9NWZ3 whole entry): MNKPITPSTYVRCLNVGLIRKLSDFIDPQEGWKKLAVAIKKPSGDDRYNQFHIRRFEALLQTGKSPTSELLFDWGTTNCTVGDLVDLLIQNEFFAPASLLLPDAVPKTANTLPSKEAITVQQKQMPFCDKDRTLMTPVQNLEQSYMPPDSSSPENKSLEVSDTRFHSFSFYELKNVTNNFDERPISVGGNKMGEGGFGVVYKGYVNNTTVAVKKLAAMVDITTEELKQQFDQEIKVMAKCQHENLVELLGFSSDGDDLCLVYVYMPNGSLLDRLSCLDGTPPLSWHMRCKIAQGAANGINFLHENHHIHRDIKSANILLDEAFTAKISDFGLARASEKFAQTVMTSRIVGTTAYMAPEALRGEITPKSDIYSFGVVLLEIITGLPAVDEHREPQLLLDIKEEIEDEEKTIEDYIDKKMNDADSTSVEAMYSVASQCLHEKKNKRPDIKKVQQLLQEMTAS

| Structure (SMILES) | IC50 [1] [nM] | solubility kinetic at 24 h [2] [µg/mL] | Kpuu (unbound brain-to-plasma partition coefficient) [3] | efflux ratio at 120 min, 1 μM [4] |
| --- | --- | --- | --- | --- |
| CC(C)Oc1cc2nc(C34COC(C)(C3)C4)cn2cc1C(=O)Nc1cccn(C2CC2)c1=O [Example 6, N-(1-cyclopropyl-2-oxo-1,2-dihydropyridin-3-yl)-7-isopropoxy-2-(1-methyl-2-oxabicyclo[2.1.1]hexan-4-yl)imidazo[1,2-a]pyridine-6-carboxamide] | 0.1 | 58 (≈ 129 µM) | 0.27 | 7.9 |
| CC[C@@H](C)Oc1nc2nc(C34COC(C)(C3)C4)cn2cc1C(=O)Nc1cccn(C2CC2)c1=O (single isomer, unassigned) [Example 63] | 0.8 | 67.1 (≈ 145 µM) | 0.48 | 5.5 |
| CC(C)Oc1nc2nc([C@@]34CC[C@@](C)(C3)OC4)cn2cc1C(=O)Nc1cccn(C)c1=O [Comparator 4D, 7-isopropoxy-N-(1-methyl-2-oxo-1,2-dihydropyridin-3-yl)-2-((1S,4R)-1-methyl-2-oxabicyclo[2.2.1]heptan-4-yl)imidazo[1,2-a]pyrimidine-6-carboxamide, reference compound] | 0.5 | 58.8 (≈ 134 µM) | 0.2 | 5.6 |
| CC[C@H](C)Oc1cc2nc(C34COC(C)(C3)C4)cn2cc1C(=O)Nc1cccn(C2CC2)c1=O [Example 19, (S)-7-(sec-butoxy)-N-(1-cyclopropyl-2-oxo-1,2-dihydropyridin-3-yl)-2-(1-methyl-2-oxabicyclo[2.1.1]hexan-4-yl)imidazo[1,2-a]pyridine-6-carboxamide] | 0.5 | 47 (≈ 102 µM) | 0.49 | 6 |
| CC(C)Oc1cc2nc([C@@]34CC[C@@](C)(C3)OC4)cn2cc1C(=O)Nc1ccn(C)n1 (single isomer, unassigned) [Comparator 3C, reference compound] | 2.3 | 28.5 (≈ 69.6 µM) | 0.3 | 6.3 |
| CC[C@H](C)Oc1nc2nc([C@@]34CC[C@@](C)(C3)OC4)cn2cc1C(=O)Nc1cccn(C2CC2)c1=O [Example 49, 7-((S)-sec-butoxy)-N-(1-cyclopropyl-2-oxo-1,2-dihydropyridin-3-yl)-2-((1S,4R)-1-methyl-2-oxabicyclo[2.2.1]heptan-4-yl)imidazo[1,2-a]pyrimidine-6-carboxamide] | 0.4 | 56.1 (≈ 117 µM) | 0.66 | 3.6 |
| CC(C)Oc1cc2nc(C34CCC(C)(CC3)OC4)cn2cc1C(=O)Nc1cccn(C2CC2)c1=O [Example 3, N-(1-cyclopropyl-2-oxo-1,2-dihydropyridin-3-yl)-7-isopropoxy-2-(1-methyl-2-oxabicyclo[2.2.2]octan-4-yl)imidazo[1,2-a]pyridine-6-carboxamide] | 0.2 | 36 (≈ 75.5 µM) | 0.25 | 2.9 |
| C[C@@]12CC[C@@](c3cn4cc(C(=O)Nc5cccn(C6CC6)c5=O)c(OC5CCC5)cc4n3)(CO1)C2 (single isomer, unassigned) [Example 25] | 0.3 | 66.7 (≈ 141 µM) | 0.36 | 3.2 |
| CC(C)Oc1c(C(=O)Nc2cccn(C3CC3)c2=O)cn2cc(C34COC(C)(C3)C4)nc2c1F [Example 61, N-(1-cyclopropyl-2-oxo-1,2-dihydropyridin-3-yl)-8-fluoro-7-isopropoxy-2-(1-methyl-2-oxabicyclo[2.1.1]hexan-4-yl)imidazo[1,2-a]pyridine-6-carboxamide] | 2 | 65.8 (≈ 141 µM) | 0.45 | 2.8 |
| CC(C)Oc1nc2nc(C[C@@H]3CCOC3)cn2cc1C(=O)Nc1cccn(C2CC2)c1=O (single isomer, unassigned) [Example 109] | 0.5 | 50.2 (≈ 115 µM) | 0.25 | 7.1 |
| CC(C)Oc1nc2nc([C@@]34CC[C@@](C)(C3)OC4)cn2cc1C(=O)Nc1cccn([C@H]2C[C@@H]2C)c1=O (single isomer, unassigned) [Example 149] | 0.4 | 34.5 (≈ 72.2 µM) | 1.34 | 2.8 |
| CC[C@H](C)Oc1nc2nc([C@]34CC[C@](C)(C3)OC4)cn2cc1C(=O)Nc1cccn(C2CC2)c1=O [Example 50, 7-((S)-sec-butoxy)-N-(1-cyclopropyl-2-oxo-1,2-dihydropyridin-3-yl)-2-((1R,4S)-1-methyl-2-oxabicyclo[2.2.1]heptan-4-yl)imidazo[1,2-a]pyrimidine-6-carboxamide] | 0.5 | – | 0.66 | 2.9 |

The remaining lines, values ahead:

| IC50 [1] [nM] | solubility kinetic at 24 h [2] [µg/mL] | Kpuu (unbound brain-to-plasma partition coefficient) [3] | efflux ratio at 120 min, 1 μM [4] | Structure (SMILES) |
| --- | --- | --- | --- | --- |
| 0.6 | 63.2 (≈ 150 µM) | 0.9 | 8 | CC(C)Oc1cc2nc(C34COC(C)(C3)C4)cn2cc1C(=O)Nc1cccn(C)c1=O [Comparator 1D, 7-isopropoxy-N-(1-methyl-2-oxo-1,2-dihydropyridin-3-yl)-2-(1-methyl-2-oxabicyclo[2.1.1]hexan-4-yl)imidazo[1,2-a]pyridine-6-carboxamide, reference compound] |
| 0.7 | 79 (≈ 164 µM) | 0.73 | 4.2 | CC(C)Oc1cc2nc([C@]34CC[C@](C)(C3)OC4)cn2cc1C(=O)Nc1cccn([C@H]2C[C@@H]2F)c1=O (single isomer, unassigned) [Example 119] |
| 0.3 | 9.5 (≈ 21.4 µM) | 0.9 | 4.9 | CC(C)Oc1cc2nc(C34CC(C#N)(C3)C4)cn2cc1C(=O)Nc1cccn(C2CC2)c1=O [Example 80, 2-(3-cyanobicyclo[1.1.1]pentan-1-yl)-N-(1-cyclopropyl-2-oxo-1,2-dihydropyridin-3-yl)-7-isopropoxyimidazo[1,2-a]pyridine-6-carboxamide] |
| 0.3 | 79.2 (≈ 165 µM) | 0.66 | 5 | CC(C)Oc1cc2nc([C@@]34CC[C@@](CF)(C3)OC4)cn2cc1C(=O)Nc1cccn(C2CC2)c1=O (single isomer, unassigned) [Example 7] |
| 0.1 | 32.9 (≈ 71.1 µM) | 0.38 | 6.1 | CC(C)Oc1cc2nc([C@]34CC[C@](C)(C3)OC4)cn2cc1C(=O)Nc1cccn(C2CC2)c1=O (single isomer, unassigned) [Example 5] |
| 0.2 | 23 | 1.58 | 2.6 | CC(C)Oc1cc2nc([C@]34CC[C@](C)(C3)OC4)cn2cc1C(=O)Nc1cccn([C@H]2C[C@H]2C)c1=O [Example 180, 7-isopropoxy-2-((1R,4S)-1-methyl-2-oxabicyclo[2.2.1]heptan-4-yl)-N-(1-((1S,2R)-2-methylcyclopropyl)-2-oxo-1,2-dihydropyridin-3-yl)imidazo[1,2-a]pyridine-6-carboxamide trifluoroacetate] |
